This is an account of results in EP4800012A1, “COMPOUND ACTING AS PARP7 INHIBITOR” (Dovetree Medicines Unus, Inc., priority 2023, dated 2025).

SMILES strings stand for the structures.

Assay [1] has as its system NCI-H1373 cells. The assay is described as follows: Inhibition on NCI-H1373 cell proliferation (Cell-Titer-Glo). It is filed as cell-based. As to conditions: Homo sapiens, 144 h; NCI-H1373 cells, incubation for 6 days, Cell-Titer-Glo; read-out: NCI-H1373 cell proliferation inhibition IC50. The protocol:
The inhibitory effect of the compound on PARP7 was evaluated by testing the inhibitory effect of the compound on NCI-H1373 cell proliferation.
NCI-H1373 cells (ATCC, CRL-5866) were cultured in a complete medium, namely, a RPMI-1640 medium (Gibco, 22400089) containing 10% fetal bovine serum (Corning, 35-081-CV).
Negative control wells and positive control wells were added with 50 nL DMSO (Sigma, D2650), respectively.
In "Day 0" detection plate, NCI-H1373 cells were seeded at a density of 600 cells/well (50 µL) in a complete medium into the Day 0 test wells of a 384-well detection plate (Grenier, 781091). Then, 25 µL of Cell-Titer-Glo reagent (Promega, G7573) was added to each well, followed by centrifugation at 1000 rpm at room temperature for 1 minute and incubation at room temperature under shaded conditions for 10 min. Chemiluminescence signals were collected using an Envision (Perkin Elmer, EnVision 2105) to obtain the average value of the Day 0 test values.
In "compound detection plate", NCI-H1373 cells were seeded at a density of 600 cells/well (50 µL) in a complete medium into the negative control wells and the compound detection wells of a 384-well detection plate (Grenier, 781091), and 50 µL of cell culture medium was added to the positive control wells, followed by centrifugation at 1000 rpm at room temperature for 1 minute and placing in a cell incubator at 37°C, 5% CO2 for incubation for 6 days. […] Chemiluminescence signals were collected using an Envision (Perkin Elmer, EnVision 2105). The test values for each compound well, negative control well, and positive control well were obtained.
The proliferation inhibition ratio formula is as follows: [formula]
The average value of the negative control = the average value of the Day 6 test values of each negative control well minus the average value of the Day 0 test values
The average value of the positive control = the average value of the Day 6 test values of each positive control well
The average value of the compound test = (the Day 6 test value of compound test well 1 + the Day 6 test value of compound test well 2)/2 - the average value of the Day 0 test values

Assay [2] concerns the target T1, PARP7 (Homo sapiens, UniProt Q7Z3E1).
T1 construct: purchased BPS 80527
T1 sequence (Q7Z3E1 1-657): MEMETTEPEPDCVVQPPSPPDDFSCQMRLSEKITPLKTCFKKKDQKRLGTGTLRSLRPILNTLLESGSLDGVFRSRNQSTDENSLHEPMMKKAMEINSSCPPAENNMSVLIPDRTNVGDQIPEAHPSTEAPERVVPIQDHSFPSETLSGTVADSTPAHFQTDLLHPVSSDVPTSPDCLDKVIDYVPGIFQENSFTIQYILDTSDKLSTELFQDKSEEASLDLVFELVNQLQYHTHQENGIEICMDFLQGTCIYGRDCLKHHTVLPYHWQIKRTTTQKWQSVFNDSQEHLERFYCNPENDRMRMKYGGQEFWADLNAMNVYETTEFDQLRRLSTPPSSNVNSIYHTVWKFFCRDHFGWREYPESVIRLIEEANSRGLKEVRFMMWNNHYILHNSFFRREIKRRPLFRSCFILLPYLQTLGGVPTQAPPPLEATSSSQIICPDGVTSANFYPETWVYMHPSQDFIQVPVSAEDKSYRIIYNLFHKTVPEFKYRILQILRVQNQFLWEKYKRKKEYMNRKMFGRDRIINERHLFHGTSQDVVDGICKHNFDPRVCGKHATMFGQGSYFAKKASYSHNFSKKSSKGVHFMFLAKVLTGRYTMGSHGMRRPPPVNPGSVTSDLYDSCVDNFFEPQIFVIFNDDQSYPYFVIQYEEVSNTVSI
The assay is described as follows: Inhibition of the compound on PARP7 protein activity (ADP-ribosylation, chemiluminescence). The class given is biochemical.

In assay [3] the target is T1, PARP7. Description: PARP7 TR-FRET binding inhibition (displacement of probe RBN011147). The protocol:
The ability of the compound to substitute the probe RBN011147 (Wigle et al., 2020, Cell Chemical Biology 27, 877-887) was tested by a TR-FRET method, and IC50 was calculated to evaluate the binding ability of the compound to PARP7. […]
On the technique in general: TR-FRET usually uses a lanthanide donor and a delayed reading to cut background.

Setting [4] is: Histone H1 coated plate, Biotin-Labeled NAD+, 2 h at room temperature, chemiluminescence; read-out: PARP7 activity inhibition IC50.
Setting [5] is: TR-FRET, Biotin-labeled probe RBN011147; read-out: PARP7 binding inhibition IC50.

For the compound `CC(CCCNC(=O)c1cnc(-n2cc(C(F)(F)F)cn2)cn1)Nc1cn[nH]c(=O)c1C(F)(F)F` (stereo not drawn) [Example 175], the IC50 in assay [1] was 300 to 1000 nM; in assay [2] (setting [4]), under 3 nM; in assay [3] (setting [5]), 10 to 30 nM.
In the case of `CC(CCCNC(=O)c1ccc(-c2ncc(N(C)C)cn2)cc1)Nc1cn[nH]c(=O)c1C(F)(F)F` (stereo not drawn) [Example 63], the IC50 in assay [1] is under 300 nM; in assay [2] (setting [4]), under 3 nM; in assay [3] (setting [5]), under 10 nM.
The corresponding values for `CC(CCCNC(=O)c1ncc(-c2ncc(C(F)(F)F)s2)cc1F)Nc1cn[nH]c(=O)c1C(F)(F)F` (stereo not drawn) [Example 75] are under 300 nM, under 3 nM and under 10 nM.
For `CC(CCCNC(=O)c1ccc(-c2ncc(N3CCOCC3)s2)cc1)Nc1cn[nH]c(=O)c1C(F)(F)F` (stereo not drawn) [Example 15], in that order: over 3000 nM, 3 to 10 nM and 10 to 30 nM.
`CC(CCCNC(=O)c1cnc(-c2ncc(C(F)(F)F)s2)cn1)Nc1cn[nH]c(=O)c1C(F)(F)F` (stereo not drawn) [Example 26]: the IC50 in assay [1] is 1000 to 3000 nM; in assay [2] (setting [4]), under 3 nM; in assay [3] (setting [5]) it was under 10 nM.
For `CC(CCCNC(=O)c1ccc(-c2csc(C(F)(F)F)n2)cc1)Nc1cn[nH]c(=O)c1C(F)(F)F` (stereo not drawn) [Example 80], in that order: over 3000 nM, 10 to 30 nM and 30 to 100 nM.
With `CC(CCCNC(=O)c1ccc(-c2cc(C(F)(F)F)sn2)cc1F)Nc1cn[nH]c(=O)c1C(F)(F)F` (stereo not drawn) [Example 212], the figures for the IC50 in assay [1], in assay [2] (setting [4]) and in assay [3] (setting [5]) were under 300 nM, under 3 nM and under 10 nM, respectively.
With `CC(CCCNC(=O)c1ccc(-c2ncc(CC3CCCC3)s2)cc1)Nc1cn[nH]c(=O)c1C(F)(F)F` (stereo not drawn) [Example 43], the figures for the IC50 in assay [1], in assay [2] (setting [4]) and in assay [3] (setting [5]) were under 300 nM, under 3 nM and under 10 nM, respectively.
With `CC#Cc1cnc(-c2ccc(C(=O)NCCCC(C)Nc3cn[nH]c(=O)c3C(F)(F)F)cc2)s1` (stereo not drawn) [Example 42], the IC50 is over 3000 nM in assay [1], under 3 nM in assay [2] (setting [4]) and 30 to 100 nM in assay [3] (setting [5]).
On to `CC(CCCNC(=O)c1ccc(-c2ncc(C(F)F)s2)cn1)Nc1cc[nH]c(=O)c1C(F)(F)F` (stereo not drawn) [Example 29], for which the IC50 is over 3000 nM in assay [1], under 3 nM in assay [2] (setting [4]) and 10 to 30 nM in assay [3] (setting [5]).
For `O=C(NCCC[C@H]1CCN1c1cn[nH]c(=O)c1C(F)(F)F)c1cnc(-c2ncc(C(F)(F)F)cn2)cn1` [Example 164], the IC50 was over 3000 nM in assay [1]; over 100 nM in assay [2] (read-out: PARP7 activity inhibition IC50; Histone H1 coated plate, Biotin-Labeled NAD+, 2 h at room temperature, chemiluminescence); over 100 nM in assay [3] (read-out: PARP7 binding inhibition IC50; TR-FRET, Biotin-labeled probe RBN011147).
In the case of `CC(CCCNC(=O)c1ncc(-c2cscn2)cc1F)Nc1cn[nH]c(=O)c1C(F)(F)F` (stereo not drawn) [Example 182], the IC50 in assay [1] was over 3000 nM; in assay [2] (setting [4]), 3 to 10 nM; in assay [3] (setting [5]), 30 to 100 nM.
The corresponding values for `CC(CCCNC(=O)c1cnc(-c2ncc(C(F)(F)F)s2)cn1)Nc1cc[nH]c(=O)c1C(F)(F)F` (stereo not drawn) [Example 31] are over 3000 nM, under 3 nM and 10 to 30 nM.
Take `COc1cnc(-c2ccc(C(=O)NCCCC(C)Nc3cn[nH]c(=O)c3C(F)(F)F)cc2)s1` (stereo not drawn) [Example 22]: the IC50 in assay [1] is 1000 to 3000 nM; in assay [2] (setting [4]) it was under 3 nM; in assay [3] (setting [5]) it was 10 to 30 nM.
For `CC(CCCNC(=O)c1ccc(-c2ncc(C(F)(F)F)cn2)cc1O)Nc1cn[nH]c(=O)c1C(F)(F)F` (stereo not drawn) [Example 1], in that order: 1000 to 3000 nM, under 3 nM and under 10 nM.
